Assay results: ChEMBL document CHEMBL1201862, “PubChem BioAssay data set” (2004)
Calls of active or inactive are those of the source.

Key:
HeLa = assay: HeLa cell cytotoxicity, dose response, cytotoxicity control, 24 h, cherry-picked samples (AID 504726); assay type: functional, cell-based; settings: Homo sapiens;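 also: potency for cytotoxicity as loss of luminescence signal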
Trypsin = Trypsin (Sus scrofa, UniProt P00761); assay: porcine trypsin inhibitors, dose response, selectivity assay for Rce1 protease inhibitor project, biochemical, quenched peptide fluorescence, cherry-pick (AID 488789)
CAAX prenyl protease 2 = target: T1, CAAX prenyl protease 2 (Homo sapiens, UniProt Q9Y256); assay: human Rce1 protease inhibitors, dose response, biochemical, yeast membranes, quenched-peptide fluorescence, cherry-pick (AID 588849)
T1 sequence (Q9Y256 whole entry): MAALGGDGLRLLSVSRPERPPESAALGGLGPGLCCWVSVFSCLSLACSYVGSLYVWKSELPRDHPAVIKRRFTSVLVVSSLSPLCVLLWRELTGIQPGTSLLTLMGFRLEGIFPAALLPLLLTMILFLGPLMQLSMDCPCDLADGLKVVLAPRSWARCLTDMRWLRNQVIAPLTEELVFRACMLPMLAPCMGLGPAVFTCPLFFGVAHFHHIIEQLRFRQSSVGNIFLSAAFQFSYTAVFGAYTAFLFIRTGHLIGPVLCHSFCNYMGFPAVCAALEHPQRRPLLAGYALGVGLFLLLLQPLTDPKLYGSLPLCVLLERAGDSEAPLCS

[1] = target: Photoreceptor-specific nuclear receptor (Homo sapiens, UniProt Q9Y5X4); assay type: functional;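 also: potency for compounds that break the NR2E3 corepressor complex and count as activators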
[2] = target: Peroxisome proliferator-activated receptor gamma/Nuclear receptor corepressor 2 (Homo sapiens, UniProt P37231+Q9Y618); assay type: functional
[3] = target: T2, Neuropeptides B/W receptor type 1 (Homo sapiens, UniProt P48145); assay: Fluorescence-based dose response cell-based high throughput screening assay to identify antagonists of the G-protein coupled receptor 7 (GPR7). [Related pubchem assays: 1952 (Screening assay (GPR7 antagonists).), 1880 (Summary AID.)]; assay type: functional
T2 sequence (P48145 whole entry): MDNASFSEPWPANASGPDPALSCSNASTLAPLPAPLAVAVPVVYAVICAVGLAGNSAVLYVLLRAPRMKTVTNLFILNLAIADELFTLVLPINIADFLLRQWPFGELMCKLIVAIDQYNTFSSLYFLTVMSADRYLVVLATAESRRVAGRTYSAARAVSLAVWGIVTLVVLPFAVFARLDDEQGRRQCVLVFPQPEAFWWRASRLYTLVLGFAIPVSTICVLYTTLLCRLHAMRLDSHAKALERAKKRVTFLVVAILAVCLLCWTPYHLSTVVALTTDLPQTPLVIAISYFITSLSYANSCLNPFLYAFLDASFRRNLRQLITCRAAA

[4] = target: Melanin-concentrating hormone receptor 1 (Homo sapiens, UniProt Q99705); assay: Fluorescence-based counterscreen for antagonists of the G-protein coupled receptor 7 (GPR7): cell-based high throughput dose response assay to identify antagonists of the melanin-concentrating hormone receptor 1 (MCHR1).; assay type: functional
[5] = target: T3, Short transient receptor potential channel 4 (Mus musculus, UniProt Q9QUQ5); assay: mouse TRPC4 channel activators, dose response, cell-based, HEK293 TRPC4/mu-opioid, Fluo-4 calcium (AID 434937); assay type: functional
T3 sequence (Q9QUQ5 whole entry): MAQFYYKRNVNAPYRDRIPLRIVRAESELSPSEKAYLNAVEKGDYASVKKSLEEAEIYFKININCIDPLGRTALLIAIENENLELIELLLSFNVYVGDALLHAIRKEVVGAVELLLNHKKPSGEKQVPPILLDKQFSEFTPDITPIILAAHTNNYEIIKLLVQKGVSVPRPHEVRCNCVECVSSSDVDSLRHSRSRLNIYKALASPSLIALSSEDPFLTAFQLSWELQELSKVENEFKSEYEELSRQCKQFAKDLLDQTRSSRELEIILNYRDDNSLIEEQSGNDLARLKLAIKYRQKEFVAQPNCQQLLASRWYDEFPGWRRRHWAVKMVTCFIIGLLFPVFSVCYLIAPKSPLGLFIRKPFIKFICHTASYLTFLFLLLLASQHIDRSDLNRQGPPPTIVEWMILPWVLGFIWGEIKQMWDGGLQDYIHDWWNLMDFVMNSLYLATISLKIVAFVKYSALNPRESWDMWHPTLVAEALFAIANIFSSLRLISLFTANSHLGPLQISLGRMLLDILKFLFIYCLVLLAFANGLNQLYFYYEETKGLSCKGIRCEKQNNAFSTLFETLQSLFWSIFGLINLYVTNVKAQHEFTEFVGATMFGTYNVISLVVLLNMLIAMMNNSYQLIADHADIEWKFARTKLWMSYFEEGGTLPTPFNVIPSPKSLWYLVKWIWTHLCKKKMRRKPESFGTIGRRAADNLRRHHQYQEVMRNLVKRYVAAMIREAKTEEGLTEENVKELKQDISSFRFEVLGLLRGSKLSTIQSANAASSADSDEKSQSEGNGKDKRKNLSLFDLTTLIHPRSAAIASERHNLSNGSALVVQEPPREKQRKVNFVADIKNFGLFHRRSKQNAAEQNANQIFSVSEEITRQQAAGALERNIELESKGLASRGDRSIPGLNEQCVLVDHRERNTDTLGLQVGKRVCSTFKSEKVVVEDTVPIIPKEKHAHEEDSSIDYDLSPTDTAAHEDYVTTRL

[6] = target: T4, Tyrosine-protein phosphatase non-receptor type 7 (Homo sapiens, UniProt P35236); assay type: functional
T4 sequence (P35236 whole entry): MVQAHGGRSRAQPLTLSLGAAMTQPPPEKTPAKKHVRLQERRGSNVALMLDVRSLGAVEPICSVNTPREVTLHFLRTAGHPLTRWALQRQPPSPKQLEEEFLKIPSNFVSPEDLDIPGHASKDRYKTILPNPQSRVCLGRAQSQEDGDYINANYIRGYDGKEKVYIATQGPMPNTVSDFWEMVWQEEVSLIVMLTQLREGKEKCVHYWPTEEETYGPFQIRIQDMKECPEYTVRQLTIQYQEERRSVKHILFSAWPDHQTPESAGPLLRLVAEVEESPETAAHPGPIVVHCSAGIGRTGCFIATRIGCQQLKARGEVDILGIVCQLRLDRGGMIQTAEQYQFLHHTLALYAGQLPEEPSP

[7] = target: Glyceraldehyde-3-phosphate dehydrogenase (Homo sapiens, UniProt P04406)
[8] = target: Heat shock cognate 71 kDa protein (Homo sapiens, UniProt P11142); assay: In Vitro Hsc70 Dose Response Fluorescence Polarization Assay. [Related pubchem assays: 1072 ]
[9] = target: Heat shock 70 kDa protein 1A (Homo sapiens, UniProt P0DMV8); assay: Hsp70 inhibitors, SAR follow-up, biochemical, fluorescence polarization (AID 1072)
[10] = target: T5, Dual specificity protein phosphatase 6 (Rattus norvegicus, UniProt Q64346)
T5 sequence (Q64346 whole entry): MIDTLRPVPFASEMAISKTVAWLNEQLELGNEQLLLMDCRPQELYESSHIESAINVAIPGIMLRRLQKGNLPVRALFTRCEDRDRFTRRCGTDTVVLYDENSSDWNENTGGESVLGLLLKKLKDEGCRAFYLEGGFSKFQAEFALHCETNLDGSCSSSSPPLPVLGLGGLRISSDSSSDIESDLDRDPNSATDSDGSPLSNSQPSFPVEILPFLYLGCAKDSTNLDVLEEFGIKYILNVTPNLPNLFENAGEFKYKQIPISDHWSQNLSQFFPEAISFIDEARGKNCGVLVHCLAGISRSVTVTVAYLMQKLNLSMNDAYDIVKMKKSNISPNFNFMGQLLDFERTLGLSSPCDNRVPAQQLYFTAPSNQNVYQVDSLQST

[11] = target: T5, Dual specificity protein phosphatase 6; assay type: functional
Cytochrome P450 2D6 = Cytochrome P450 2D6 (Homo sapiens, UniProt P10635); assay: qHTS Assay for Inhibitors and Substrates of Cytochrome P450 2D6. [Related pubchem assays: 410 ]; assay type: ADME; settings: read-out: Potency
Cytochrome P450 2C9 = Cytochrome P450 2C9 (Homo sapiens, UniProt P11712); settings: Potency
Chain of Cytochrome P450 2C9 (P11712 whole entry): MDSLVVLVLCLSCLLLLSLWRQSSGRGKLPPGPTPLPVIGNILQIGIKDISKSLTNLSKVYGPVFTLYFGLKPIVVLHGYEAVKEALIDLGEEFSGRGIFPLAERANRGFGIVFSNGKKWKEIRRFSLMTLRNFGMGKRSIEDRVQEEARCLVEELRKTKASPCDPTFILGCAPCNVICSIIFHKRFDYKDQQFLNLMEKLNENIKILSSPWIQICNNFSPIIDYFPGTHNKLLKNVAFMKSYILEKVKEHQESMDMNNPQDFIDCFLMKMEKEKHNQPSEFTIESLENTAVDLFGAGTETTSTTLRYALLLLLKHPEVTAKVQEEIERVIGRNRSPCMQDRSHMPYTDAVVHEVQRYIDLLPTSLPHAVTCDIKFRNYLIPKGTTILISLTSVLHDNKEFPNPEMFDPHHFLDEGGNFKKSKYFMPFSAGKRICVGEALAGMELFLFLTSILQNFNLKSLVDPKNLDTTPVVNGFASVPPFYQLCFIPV

Chain of Cytochrome P450 2D6 (P10635 whole entry): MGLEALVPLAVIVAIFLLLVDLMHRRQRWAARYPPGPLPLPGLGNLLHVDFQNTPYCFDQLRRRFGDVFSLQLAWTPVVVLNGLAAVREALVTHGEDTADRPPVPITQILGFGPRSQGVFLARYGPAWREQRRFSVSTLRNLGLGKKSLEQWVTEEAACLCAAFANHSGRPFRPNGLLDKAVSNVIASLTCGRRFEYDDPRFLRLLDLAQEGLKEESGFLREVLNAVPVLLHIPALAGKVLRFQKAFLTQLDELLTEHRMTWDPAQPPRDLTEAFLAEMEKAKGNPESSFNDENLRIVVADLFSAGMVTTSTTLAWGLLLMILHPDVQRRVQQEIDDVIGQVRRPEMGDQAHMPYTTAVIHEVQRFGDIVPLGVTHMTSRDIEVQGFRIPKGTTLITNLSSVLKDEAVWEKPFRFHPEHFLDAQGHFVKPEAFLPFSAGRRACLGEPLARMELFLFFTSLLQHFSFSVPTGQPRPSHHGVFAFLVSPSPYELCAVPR
Chain of Melanin-concentrating hormone receptor 1 (Q99705 whole entry): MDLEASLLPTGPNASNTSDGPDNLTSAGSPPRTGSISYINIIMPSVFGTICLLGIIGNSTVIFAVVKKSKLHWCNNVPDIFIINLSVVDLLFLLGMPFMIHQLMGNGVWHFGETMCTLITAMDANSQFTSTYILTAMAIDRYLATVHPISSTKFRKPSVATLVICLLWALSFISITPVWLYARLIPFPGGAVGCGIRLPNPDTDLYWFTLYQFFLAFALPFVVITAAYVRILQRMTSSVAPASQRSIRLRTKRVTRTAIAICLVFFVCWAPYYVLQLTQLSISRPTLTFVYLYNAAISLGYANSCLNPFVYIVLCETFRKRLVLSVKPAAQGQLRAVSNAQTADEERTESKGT
Chain of Glyceraldehyde-3-phosphate dehydrogenase (P04406 whole entry): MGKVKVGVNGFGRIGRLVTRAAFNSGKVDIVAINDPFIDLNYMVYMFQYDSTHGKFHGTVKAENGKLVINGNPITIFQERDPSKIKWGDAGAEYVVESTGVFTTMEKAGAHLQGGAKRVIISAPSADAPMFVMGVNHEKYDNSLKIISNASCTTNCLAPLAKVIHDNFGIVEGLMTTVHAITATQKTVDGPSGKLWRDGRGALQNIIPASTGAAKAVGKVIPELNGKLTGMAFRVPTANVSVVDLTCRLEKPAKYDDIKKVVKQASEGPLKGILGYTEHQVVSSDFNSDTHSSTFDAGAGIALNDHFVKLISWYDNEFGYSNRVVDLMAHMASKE
Chain of Photoreceptor-specific nuclear receptor (Q9Y5X4 whole entry): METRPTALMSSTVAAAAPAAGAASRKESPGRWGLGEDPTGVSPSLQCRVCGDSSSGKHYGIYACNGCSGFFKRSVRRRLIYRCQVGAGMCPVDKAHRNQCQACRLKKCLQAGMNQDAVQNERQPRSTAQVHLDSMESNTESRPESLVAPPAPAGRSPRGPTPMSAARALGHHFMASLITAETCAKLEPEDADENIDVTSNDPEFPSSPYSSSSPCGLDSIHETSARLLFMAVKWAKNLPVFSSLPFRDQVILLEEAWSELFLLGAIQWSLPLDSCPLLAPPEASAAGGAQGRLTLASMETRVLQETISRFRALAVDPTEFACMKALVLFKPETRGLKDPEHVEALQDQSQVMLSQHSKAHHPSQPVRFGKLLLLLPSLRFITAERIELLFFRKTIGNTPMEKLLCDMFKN
Chain of Trypsin (P00761 whole entry): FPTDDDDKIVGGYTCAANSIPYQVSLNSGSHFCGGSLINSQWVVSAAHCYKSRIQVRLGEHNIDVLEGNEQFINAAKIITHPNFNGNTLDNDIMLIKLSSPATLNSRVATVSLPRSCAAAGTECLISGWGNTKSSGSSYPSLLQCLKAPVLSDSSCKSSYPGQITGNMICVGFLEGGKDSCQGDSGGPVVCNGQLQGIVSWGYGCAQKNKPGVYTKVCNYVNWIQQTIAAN
Chain of Heat shock cognate 71 kDa protein (P11142 whole entry): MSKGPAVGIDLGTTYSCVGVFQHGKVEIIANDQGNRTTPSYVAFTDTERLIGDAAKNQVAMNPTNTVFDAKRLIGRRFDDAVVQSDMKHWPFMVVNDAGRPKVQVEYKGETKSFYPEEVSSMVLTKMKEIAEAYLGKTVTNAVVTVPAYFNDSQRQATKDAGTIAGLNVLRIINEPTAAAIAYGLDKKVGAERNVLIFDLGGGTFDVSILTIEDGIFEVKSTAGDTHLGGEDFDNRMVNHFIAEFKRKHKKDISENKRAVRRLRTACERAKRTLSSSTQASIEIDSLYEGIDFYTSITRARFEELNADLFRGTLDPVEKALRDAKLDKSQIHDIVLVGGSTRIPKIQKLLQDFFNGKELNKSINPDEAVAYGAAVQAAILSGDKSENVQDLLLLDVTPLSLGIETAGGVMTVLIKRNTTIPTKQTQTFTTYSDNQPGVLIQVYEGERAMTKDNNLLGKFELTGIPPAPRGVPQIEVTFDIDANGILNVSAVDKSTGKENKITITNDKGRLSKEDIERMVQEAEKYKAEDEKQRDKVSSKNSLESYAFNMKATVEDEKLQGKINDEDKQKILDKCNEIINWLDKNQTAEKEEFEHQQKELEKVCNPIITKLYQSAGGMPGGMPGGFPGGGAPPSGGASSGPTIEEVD
Chain of Heat shock 70 kDa protein 1A (P0DMV8 whole entry): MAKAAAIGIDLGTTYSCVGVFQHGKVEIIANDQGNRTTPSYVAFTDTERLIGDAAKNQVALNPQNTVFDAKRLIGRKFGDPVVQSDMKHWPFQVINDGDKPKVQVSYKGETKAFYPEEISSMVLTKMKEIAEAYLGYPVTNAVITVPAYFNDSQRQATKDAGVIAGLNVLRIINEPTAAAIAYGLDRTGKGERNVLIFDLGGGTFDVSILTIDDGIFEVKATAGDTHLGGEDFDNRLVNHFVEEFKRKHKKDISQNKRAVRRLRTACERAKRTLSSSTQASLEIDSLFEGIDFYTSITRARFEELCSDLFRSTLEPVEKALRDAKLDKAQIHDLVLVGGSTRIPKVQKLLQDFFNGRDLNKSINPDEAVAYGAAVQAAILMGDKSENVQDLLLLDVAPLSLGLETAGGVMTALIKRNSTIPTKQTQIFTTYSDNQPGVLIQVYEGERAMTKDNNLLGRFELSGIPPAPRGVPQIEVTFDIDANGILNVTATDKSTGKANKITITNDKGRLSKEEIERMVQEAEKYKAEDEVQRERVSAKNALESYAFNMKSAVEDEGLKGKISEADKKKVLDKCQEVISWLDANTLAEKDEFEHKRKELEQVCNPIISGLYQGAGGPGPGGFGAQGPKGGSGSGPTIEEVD

COc1cccc2[nH]c(C(=O)NC(C)c3ccccc3)cc12 (stereo unspecified)
AC50 (HeLa): 182 µM (active)
AC50 (Trypsin): 11.2 µM (active)
AC50 (CAAX prenyl protease 2): 12.1 µM (active)

CCNC(=S)Nc1nc2c(cc1C(=O)OCC)CCCC2
IC50 [1]: > 39.8 µM (not active)
IC50 [2]: 32.7 µM (not active)

CC(NCCC1(Cc2ccccc2Cl)CCOC(C)(C)C1)c1cccs1 (stereo unspecified)
IC50 [3]: 12.7 µM (not active)
IC50 [4]: 13.3 µM (not active)
EC50 [5]: 5.31 µM (active)

O=C(O)C1Nc2ccc([N+](=O)[O-])cc2C2C=CCC12 (stereo unspecified)
IC50 [6]: 7.58 µM (active)
IC50 [7]: 97.4 µM (active)
IC50 [8]: 48.4 µM (active)
IC50 [9]: 6.06 µM (active)
IC50 [10]: 52 µM (active)
IC50 [11]: 47.5 µM (active)

CN(C)c1ccc(C(=C2C=CC(=[N+](C)C)C=C2)c2c(O)c(S(=O)(=O)[O-])cc3cc(S(=O)(=O)O)ccc23)cc1
AC50 (Cytochrome P450 2D6): 3.16 µM (inconclusive)
AC50 (Cytochrome P450 2C9): 2.51 µM (inconclusive)
